| Structure (SMILES) | CH4 permeability [Barrer] | CO2 permeability [Barrer] | H2 permeability [Barrer] | N2 permeability [Barrer] | O2 permeability [Barrer] |
| --- | --- | --- | --- | --- | --- |
| *c1cc(C(c2ccc(C)c(-n3c(=O)c4cc5oc6cc7c(cc6oc5cc4c3=O)C3(CC(C)(C)c4cc5oc6cc8c(=O)n(*)c(=O)c8cc6oc5cc43)CC7(C)C)c2)(C(F)(F)F)C(F)(F)F)ccc1C (repeat unit) | 9 | 210 | 220 | 9 | 39 |
| *c1c(C)cc(Cc2cc(C)c(-n3c(=O)c4cc5c(=O)n(*)c(=O)c5cc4c3=O)c(C)c2)cc1C (repeat unit) | 8.21 | 97.6 |  | 7.08 | 27.4 |
| *CC(*)[Si](C)(C)C (repeat unit) | 18 | 190 | 200 | 11 | 44 |
| *CCCC* (repeat unit) | 13 | 48.4 |  | 4 | 11.3 |
| *CC(*)C (repeat unit) |  | 9.2 |  | 0.5 | 1.41 |

Other lines, results leading:

| CH4 permeability [Barrer] | CO2 permeability [Barrer] | H2 permeability [Barrer] | N2 permeability [Barrer] | O2 permeability [Barrer] | Structure (SMILES) |
| --- | --- | --- | --- | --- | --- |
| 1.32 | 4.7 |  | 1.43 | 7.3 | *OC(=O)c1ccc(C(=O)Oc2c(C)cc(C(C)(C)c3cc(C)c(O*)c(C)c3)cc2C)cc1 (repeat unit) |
| 0.008 | 0.5 | 3.6 | 0.0181 | 0.13 | *c1cccc(Oc2cccc(-n3c(=O)c4cc5c(=O)n(*)c(=O)c5cc4c3=O)c2)c1 (repeat unit) |
| 0.018 | 0.921 | 3.5 | 0.0215 | 0.174 | *c1ccc(Oc2ccc(N3C(=O)c4ccc(-c5ccc6c(c5)C(=O)N(*)C6=O)cc4C3=O)cc2)cc1 (repeat unit) |
|  | 0.32 |  |  | 0.069 | *Nc1ccc(C(=O)c2ccc(NC(=O)c3cccc(C(*)=O)c3)cc2)cc1 (repeat unit) |
